{"source": "paper PMC11313180", "about": "(International Journal of Molecular Sciences, 2024)", "key": {"HDAC4": {"target": "T1, HDAC4 (Homo sapiens, UniProt P56524)", "T1 construct": "purchased Reaction Biology Corp. KDA-21-279", "assay": "Enzyme HDAC inhibition assay, HDAC4", "format": "biochemical", "conditions": "IC50 ± SEM; three experiments in duplicates; read-out: IC50 HDAC 4", "description": "All human recombinant enzymes were purchased from Reaction Biology Corp. (Malvern, PA, USA)."}, "MCF-7 [1]": {"test_system": "MCF-7", "assay": "MTT cell viability assay, MCF-7", "format": "cell-based, human", "protocol": "MTT assays were performed as previously described. […] After incubation time, medium was replaced by MTT (solution of 5 mg/mL 3-(4,5-dimethylthiazol-2-yl)-2,5-diphenyl-tetrazoliumbromidin in phosphate buffered saline, Serva, Heidelberg, Germany)."}, "MCF-7 [2]": {"test_system": "MCF-7", "assay": "Long-term (10 days) live/dead proliferation assay, calcein AM and Hoechst 33342, MCF-7", "format": "cell-based, human", "conditions": "1 µM exemestane, 1 mM (R)-α-lipoic acid", "protocol": "(§1) Cells were seeded on day one in 96-well plates. […] Then, cells were stained with calcein AM (Millipore Corporation, Billerica, MA, USA) and Hoechst 33342 (Tocris Bioscience, Bristol, UK) for 30 min and fluorescence images monitored by Leica DMi8 Thunder Imager (Leica Microsystems CMS GmbH, Wetzlar, Germany). Five images per well were monitored randomly. Calcein AM- and Hoechst 33342-stained area of the images (i.e., live proliferating cells) were evaluated."}, "T47D [3]": {"test_system": "T47D", "assay": "Long-term (10 days) live/dead proliferation assay, calcein AM and Hoechst 33342, T47D", "format": "cell-based, human", "conditions": "1 µM exemestane, 1 mM (R)-α-lipoic acid", "protocol": "as §1"}, "MCF-7 [4]": {"test_system": "MCF-7", "assay": "Immunoblotting, MCF-7", "format": "cell-based, human", "conditions": "48 h", "protocol": "(§2) A quantity of 20 or 40 µg of total protein as well as, from PageRuler Prestained Protein Ladder, 10–180 kDA (Thermo Scientific, Wesel, Germany), were resolved by SDS-Page (12% polyacrylamide gel) and transferred to polyvinylidene fluoride membrane (Millipore Corporation, Billerica, MA, USA). Blots were incubated with primary antibodies against acetylated a -tubulin (Cat. No. sc-23950), a -tubulin (Cat. No. sc-8035) (Santa Cruz Biotechnology, Heidelberg, Germany), acetyl histone h3 (Cat. No. 39140) and histone H3 (Cat. No. NB100-1669), ß-actine (Cat. No. sc-47778), p21 (AF1047), c-myk (Cat. No. MAB3696), APAF1 (Cat. No. MAB868), BIM (Cat. No. NBP1-76936), FOXO1 (Cat. No. C29H4), BCL-2 (Cat. No. AF810), and survivin (Cat. No. AF886). After another one-hour incubation with the appropriate HRP-conjugated secondary antibody, proteins were visualized by Intas Imager (Intas, Göttingen, Germany) using luminol reagent (Santa Cruz Biotechnology, Heidelberg, Germany)."}, "T47D [5]": {"test_system": "T47D", "assay": "Immunoblotting, T47D", "format": "cell-based, human", "conditions": "48 h", "protocol": "as §2"}, "MCF-7 [6]": {"test_system": "MCF-7", "assay": "Mitochondrial potential assay (TMRE), MCF-7", "format": "cell-based, human", "conditions": "1 mM; 2 h, 6 h, 24 h, 48 h", "protocol": "The analysis of mitochondrial potential was carried out as previously described with minor modifications concerning fluorescence measurement. […] After an incubation time of 2 h, 6 h, 24 h, and 48 h, medium was removed, and cells were washed with PBS and then stained for 30 min at 37 °C with 50 µL staining reagent containing 500 nM tetramethyl rhodamine ethylester as perchlorate (TMRE, BIOTREND chemicals GmbH, Cologne) and Hoechst 33342 (5 µg/mL). A quantity of 20 µM CCCP (carbonyl cyanide-m-chlorophenylhydrazone, Sigma-Aldrich, München, Germany) served as control for mitochondrial potential breakdown. Fluorescence was measured by Leica DMi8 Thunder Imager (Leica Microsystems CMS GmbH, Wetzlar, Germany)."}, "HDAC6": {"test_system": "HDAC6", "conditions": "obtained by fitting Lechner et al. source data to a sigmoidal concentration–effect model; ref [21]; read-out: IC50 HDAC 6, Lechner et al.; cited from earlier work"}, "[7]": {"test_system": "caspase 3/7 in MCF-7 cells", "assay": "Caspase 3/7 activation assay, MCF-7", "format": "cell-based, human", "conditions": "24 h; 1 µM exemestane, 0.5 mM or 1 mM (R)-α-lipoic acid", "protocol": "(§3) To analyze the compound-induced activation of capases 3 and 7, the CellEvent caspase 3/7 green detection reagent (Thermo Scientific, Wesel, Germany) was used according to the manufacturer’s instructions. […] After 24 h incubation, medium was removed, and cells were stained with 50 µL of CellEvent caspase 3/7 green detection reagent (2 µM in PBS supplemented with 5% heat-inactivated FBS). Cells were incubated for 30 min at 37 °C in a humidified incubator before imaging by using the Thermo Fisher ArrayScan XTI high content screening (HCS) system with a 10× magnification (Thermo Scientific). Hoechst 33342 was added for nuclei staining."}, "[8]": {"test_system": "caspase 3/7 in T47D cells", "assay": "Caspase 3/7 activation assay, T47D", "format": "cell-based, human", "conditions": "24 h; 1 µM exemestane, 0.5 mM or 1 mM (R)-α-lipoic acid", "protocol": "as §3"}, "HDAC": {"test_system": "HDAC", "conditions": "up to 500 µM (max. concentration tested); ref [21]; cited from earlier work"}, "[9]": {"conditions": "120 h, IC50 ± SEM, read-out: IC50 MCF-7, 120 h MTT assay"}, "[10]": {"conditions": "1 mM (R)-α-lipoic acid, 1 µM exemestane"}}, "note": "Where two headings read alike, the source gives them in different places.", "data": [{"molecule": "O=C(O)CCCC[C@@H]1CCSS1", "note": "[(R)-α-lipoic acid]", "values": [{"measurement": "IC50", "setting": "HDAC4", "result": "168 ± 19.3", "unit": "µM"}, {"measurement": "inhibition of cell proliferation at 100 µM, MCF-7", "setting": "MCF-7 [1]; 100 µM, 120 h MTT", "result": "did not inhibit cell proliferation"}, {"measurement": "reduction of proliferation at 300 µM, MCF-7", "setting": "MCF-7 [1]; 300 µM, 120 h MTT", "result": "significantly reduced proliferation"}, {"measurement": "decrease of cell viability, MCF-7", "setting": "MCF-7 [1]; 1 mM, 72 h MTT", "result": "approximately 35%"}, {"measurement": "IC50", "setting": "MCF-7 [1]; 72 h MTT, slightly above, read-out: IC50 MCF-7", "result": "~1000", "unit": "µM"}, {"measurement": "IC50", "setting": "MCF-7 [1]; [9]", "result": "439 ± 16.3", "unit": "µM"}, {"measurement": "increase in potency by prolongation of incubation time, MCF-7", "setting": "MCF-7 [1]; 120 h versus 72 h MTT", "result": 2.7, "unit": "fold"}, {"measurement": "IC50", "setting": "MCF-7 [1]; read-out: IC50 MCF-7, 72 h MTT assay, 72 h, IC50 ± SEM", "result": "1170 ± 28.9", "unit": "µM"}, {"measurement": "proliferation and doubling time over 10 days, MCF-7", "setting": "MCF-7 [2]", "result": "strong reduction in proliferation and thus increase in doubling time"}, {"measurement": "proliferation and doubling time over 10 days, T47D", "setting": "T47D [3]", "result": "reduced proliferation and increased doubling time strongly"}, {"measurement": "expression of APAF-1 and BIM, MCF-7", "setting": "MCF-7 [4]", "result": "upregulated"}, {"measurement": "expression of FOXO1, MCF-7", "setting": "MCF-7 [4]", "result": "strongly upregulated"}, {"measurement": "acetylation of histone H3 and alpha-tubulin (western blot), MCF-7", "setting": "MCF-7 [4]; [10]", "result": "increased acetylation of histone and of alpha-tubulin"}, {"measurement": "expression of p21, MCF-7", "setting": "MCF-7 [4]; [10]", "result": "moderately upregulated"}, {"measurement": "expression of survivin and c-myk, MCF-7", "setting": "MCF-7 [4]; [10]", "result": "strongly downregulated"}, {"measurement": "expression of APAF-1 and BIM, T47D", "setting": "T47D [5]", "result": "upregulated"}, {"measurement": "expression of FOXO1, T47D", "setting": "T47D [5]", "result": "strongly upregulated"}, {"measurement": "acetylation of histone H3 and alpha-tubulin (western blot), T47D", "setting": "T47D [5]; [10]", "result": "increased acetylation of histone and of alpha-tubulin"}, {"measurement": "expression of p21, T47D", "setting": "T47D [5]; [10]", "result": "moderately upregulated"}, {"measurement": "expression of survivin and c-myk, T47D", "setting": "T47D [5]; [10]", "result": "strongly downregulated"}, {"measurement": "mitochondrial potential and structure (TMRE)", "setting": "MCF-7 [6]", "result": "mitochondrial fusion up to 24 h followed by mitochondrial fission and inhibition of proliferation"}, {"measurement": "IC50", "setting": "HDAC6", "result": 210, "unit": "µM"}]}, {"molecule": "O=C(O)CCCC[C@H]1CCSS1", "note": "[(S)-α-lipoic acid]", "values": [{"measurement": "IC50", "setting": "HDAC4", "result": "324 ± 39.9", "unit": "µM"}, {"measurement": "IC50", "setting": "MCF-7 [1]; [9]", "result": "429 ± 26.8", "unit": "µM"}, {"measurement": "caspase 3/7 activation, MCF-7", "setting": "[7]", "result": "slightly lower than (R)-α-lipoic acid"}, {"measurement": "caspase 3/7 activation, T47D", "setting": "[8]", "result": "slightly lower than (R)-α-lipoic acid"}, {"measurement": "IC50", "setting": "HDAC6", "result": "> 500", "unit": "µM"}, {"measurement": "HDAC inhibitory activity", "setting": "HDAC", "result": "no HDAC inhibitory activity"}]}]}
